The subject of test [1] is lens elasticity. Briefly: Pharmacological Test-1: lens elasticity after instillation 3 times per day for 12 to 15 days. It counts as in vivo, C57BL/6J mice. To be noted: for Lens elasticity improvement: 0.03% (w/v) solution, 2.5 μL/eye, right eye, 3 times per day for 12 to 15 days, 8-month-old mice, vs vehicle control; for lens elasticity improving effect: at a concentration of 0.03%. On the procedure: The effects of compounds 1 to 4 on the lens elasticity were examined. The tests were conducted with reference to the methods described in Invest Ophthalmol Vis Sci, 57, 2851-2863, 2016.
A vehicle (aqueous solution) comprising 0.1% (w/v) of ethyl pyruvate, 0.269% (w/v) of sodium dihydrogenphosphate monohydrate (NaH2PO4.H2O), 0.433% (w/v) of di sodium hydrogenphosphate (Na2HPO4), 0.2% (w/v) of hydroxypropyl methylcellulose, 0.5% (w/v) of NaCl, 1.0% (w/v) of polyoxyl 35 castor oil (hereinafter also referred to as “CO35”), and purified water (appropriate amount) was prepared.
Each of compounds 1 to 4 was stirred with the addition of the vehicle to give a 0.03% (w/v) solution.
EV06 was stirred with the addition of the vehicle to give a 0.03% (w/v) solution. (Test method) 1) Each test sample (2.5 μL/eye) was instilled into the right eye of 8-month-old C57BL/6J mice with a Pipetman 3 times per day (around 9:00, 13:00, 17:00) for 12 to 15 days. 2) After the final instillation, the mice were euthanized by carbon dioxide inhalation, and then the eyeballs were extracted and rinsed with Hank's balanced salt solution (HESS). 3) The sclera near the optic nerve was cut with a razor, the lens was removed through the incision, and the removed lens was immersed in HESS. 4) The lens was placed on a glass slide, and an all-in-one fluorescence microscope BZ-9000 (Keyence) was used to capture an image of the lens (Image a). 5) Next, one cover glass (Corning^registered trade mark) 22×22 mm Square) was placed on the lens, and an image in which the thickness of the lens changed due to the weight was similarly captured (Image b). 6) A change in the lens diameter was calculated from the following Equation 1 wherein the lens diameter of Image a is subtracted from the lens diameter of Image b. Then, the lens elasticity improvement of each sample group compared with the vehicle control group was calculated from Equation 2 described below. The mean value of the vehicle control group was based on 5 eyes, the mean value of each of the sample groups of compounds 1 to 4 was based on 10 eyes, and the mean value of EV06 sample group was based on 9 eyes.
Change in lens diameter=Lens diameter in Image b of each test sample−Lens diameter in Image a of each test sample (Equation 1)
Lens elasticity improvement of each sample group=Mean change in lens diameter of each Test sample group−Mean change in lens diameter of Vehicle control group (Equation 2)

In test [2] the test system is lens elasticity. The experiment in a line: Pharmacological Test-2: lens elasticity at different concentrations, instillation 3 times per day for 12 to 15 days. To be noted: for Lens elasticity improvement: 3 times per day for 12 to 15 days; for lens elasticity improvement compared with 1.5% EV06 group: 0.03% and 0.3% sample groups. It counts as in vivo, C57BL/6J mice. On the procedure: The effects of Compounds 1, 3, and 4 on the lens elasticity were investigated at different concentrations.
Vehicle A (aqueous solution) comprising 0.1% (w/v) of ethyl pyruvate, 0.269% (w/v) of sodium dihydrogenphosphate monohydrate (NaH2PO4.H2O), 0.433% (w/v) of disodium hydrogenphosphate (Na2HPO4), 0.2% (w/v) of hydroxypropyl methylcellulose, 0.5% (w/v) of NaCl, 0.2% (w/v) of 0035, and purified water (appropriate amount) was prepared.
Vehicle B (emulsion) comprising 0.1% (w/v) of ethyl pyruvate, 0.269% (w/v) of sodium dihydrogenphosphate monohydrate (NaH2PO4.H2O), 0.433% (w/v) of disodium hydrogenphosphate (Na2HPO4), 0.2% (w/v) of hydroxypropyl methylcellulose, 0.5% (w/v) of NaCl, 0.2% (w/v) of CO35, 0.6% benzyl benzoate, and purified water (appropriate amount) was prepared.
Vehicle C (aqueous solution) comprising 0.1% (w/v) of ethyl pyruvate, 0.269% (w/v) of sodium dihydrogenphosphate monohydrate (NaH2PO4.H2O), 0.433% (w/v) of disodium hydrogenphosphate (Na2HPO4), 0.2% (w/v) of hydroxypropyl methylcellulose, 0.5% (w/v) of NaCl, 1.0% (w/v) of 0035, and purified water (appropriate amount) was prepared.
Vehicle D (emulsion) comprising 0.1% (w/v) of ethyl pyruvate, 0.269% (w/v) of sodium dihydrogenphosphate monohydrate (NaH2PO4.H2O), 0.433% (w/v) of disodium hydrogenphosphate (Na2HPO4), 0.2% (w/v) of hydroxypropyl methylcellulose, 0.5% (w/v) of NaCl, 1.0% (w/v) of CO35, 3.0% benzyl benzoate, and purified water (appropriate amount) was prepared.
A diluent (aqueous solution) comprising 0.1% (w/v) of ethyl pyruvate, 0.269% (w/v) of sodium dihydrogenphosphate monohydrate (NaH2PO4.H2O), 0.433% (w/v) of disodium hydrogenphosphate (Na2HPO4), 0.2% (w/v) of hydroxypropyl methylcellulose, 0.5% (w/v) of NaCl, and purified water (appropriate amount) was prepared.
Compound 1 was stirred with the addition of Vehicle C to prepare a 1.5% (w/v) emulsion, and the emulsion was diluted with the diluent to give a 0.3% (w/v) emulsion. Further, the resulting 0.3% (w/v) emulsion was diluted with the diluent to give a 0.03% (w/v) emulsion. Further, the resulting 0.03% (w/v) emulsion was diluted with the diluent to give a 0.003% (w/v) emulsion.
Compound 3 was stirred with the addition of Vehicle C to give a 1.5% (w/v) solution, and the resulting solution was diluted to give a 0.3% (w/v) solution. Further, the resulting 0.3% (w/v) solution was diluted with Vehicle A to give a 0.03% (w/v) solution. Further, the resulting 0.03% (w/v) solution was diluted with Vehicle A to give a 0.003% (w/v) solution.
Compound 4 was stirred with the addition of Vehicle D to give a 1.5% (w/v) emulsion, and the resulting emulsion was diluted with the diluent to prepare a 0.3% (w/v) emulsion. Further, the resulting 0.3% (w/v) emulsion was diluted with the diluent to give a 0.03% (w/v) emulsion. Further, the resulting 0.03% (w/v) emulsion was diluted with the diluent to give a 0.003% (w/v) emulsion.
EV06 was stirred with the addition of Vehicle A to give a 1.5% (w/v) solution, which was used for comparison to the samples of Compound 1 and 3.
EV06 was sonicated with the addition of Vehicle B to give a 1.5% (w/v) emulsion, which was used for comparison to Compound 4 sample.
(Test method) 1) Each test sample (2.5 μL/eye) was instilled into the right eye of 7 to 8-month-old C57BL/6J mice with a Pipetman 3 times per day (around 9:00, 13:00 and 17:00) for 12 to 15 days. 2) After the final instillation, the mice were euthanized by carbon dioxide inhalation, and then the eyeballs were extracted and rinsed with Hank's balanced salt solution (HESS). 3) The sclera near the optic nerve was cut with a razor, the lens was removed through the incision, and the removed lens was immersed in HESS. 4) The lens was placed on a glass slide, and an all-in-one fluorescence microscope BZ-9000 (Keyence) was used to capture an image of the lens (Image a). […]

Where [3] appears, read: 0.003% (w/v) sample, 7 to 8-month-old mice.
Where [4] appears, read: 0.03% (w/v) sample, 7 to 8-month-old mice.
Where [5] appears, read: 0.3% (w/v) sample, 7 to 8-month-old mice.

Regarding `CC(C)=CCOC(=O)CCCC[C@@H]1CCSS1` [Compound 1, 3-Methyl-2-buten-1-yl (R)-5-(1,2-dithiolan-3-yl)pentanoate], the Lens elasticity improvement in the test on lens elasticity [1] is recorded as 48.0 μm; with lens elasticity [2] (setting [3]), 13.0 μm; in the test with lens elasticity [2] (setting [4]), 37.1 μm; with lens elasticity [2] (setting [5]), 36.8 μm. For the same compound, the “lens elasticity improving effect” value in the test on lens elasticity [1] was “potent lens elasticity improving effect”. Moreover, the “lens elasticity improvement compared with 1.5% EV06 group” value with lens elasticity [2] is listed as “equivalent to or better than 1.5% EV06 group”.

For the compound `O=C(CCCC[C@@H]1CCSS1)OCCN1CCN(CCO)CC1` [Compound 3], the Lens elasticity improvement was 49.9 μm in the test on lens elasticity [1], 1.3 μm in the test on lens elasticity [2] (setting [3]), 30.7 μm in the test with lens elasticity [2] (setting [4]) and 41.8 μm with lens elasticity [2] (setting [5]). Moreover, in the test on lens elasticity [1], the “lens elasticity improving effect” value is reported as “potent lens elasticity improving effect”. In the test on lens elasticity [2], the “lens elasticity improvement compared with 1.5% EV06 group” value was “equivalent to or better than 1.5% EV06 group”.

Consider `C[N+](C)(C)CCOC(=O)CCCC[C@@H]1CCSS1.[Cl-]` [EV06, Lipoic acid choline ester, reference compound], for which the Lens elasticity improvement with lens elasticity [1] is 4.0 μm; in the test on lens elasticity [2] (1.5% (w/v) emulsion in Vehicle B, Table 4 (comparison to Compound 4)), 46.8 μm; in the test with lens elasticity [2] (1.5% (w/v) solution in Vehicle A, Table 2 (comparison to Compound 1)), 30.8 μm; in the test on lens elasticity [2] (1.5% (w/v) solution in Vehicle A, Table 3 (comparison to Compound 3)), 18.2 μm. Further, the “lens elasticity improving effect” value in the test with lens elasticity [1] is “did not show lens elasticity improving effect”.

(Values after patent publication US20220151989A1, “LIPOIC ACID PRODRUG” (SANTEN PHARMACEUTICAL CO., LTD., priority 2019, published 2022).)
